Reference: PMC10180276, “Hot-Melt Extrusion as an Effective Technique for Obtaining an Amorphous System of Curcumin and Piperine with Improved Properties Essential for Their Better Biological Activities” (Molecules, 2023)
Converted amounts (≈) assume the structure as drawn.

Key:
[1] = Dissolution study, paddle apparatus, phosphate buffer pH 6.8; type: physicochemical; details: phosphate buffer pH 6.8, 37 °C, 50 rpm; after one hour (plateau)
Experimental: (§1) The injection volume differed depending on the assay. […] The method’s duration was 12 min.
(§2) Phosphate buffer at pH 6.8 was prepared according to the following description: in a 1000 mL volumetric flask, we placed 250 mL of 0.2 N potassium dihydrogen phosphate solution, then added 112 mL of 0.2 N sodium hydroxide solution, and filled the mixture up to 1000 mL with distilled water. High-quality pure water was prepared using a Direct-Q 3 UV purification system (Millipore, Molsheim, France, model Exil SA 67120).
The dissolution study was performed on the paddle apparatus (Agilent 708-DS dissolution apparatus, Santa Clara, CA, USA). The amount of the compound and systems corresponding to 7.0 mg of each plant-origin active ingredient was added to the gelatin capsule, placed in a spring used as a sinker, and then added to the dissolution medium. The vessels were filled with 500 mL of phosphate buffer, pH 6.8; the temperature was maintained at 37 °C, and the paddles were set at a stirring speed of 50 rotations per minute. The 2.0 mL samples were withdrawn at predetermined time points (5 min, 15 min, 30 min, 1 h, 2 h, 3 h, 4 h, 5 h, and 6 h) with the replacement of equal volumes of temperature-equilibrated media.

[2] = Apparent solubility study in phosphate buffer pH 6.8; type: physicochemical
Experimental: as §1, §2
An excess amount of raw compounds and systems (corresponding to 1.5 mg of each substance) was placed in a 10 mL glass tube; then, 2.0 mL of phosphate buffer (pH 6.8) was added and left at room temperature for 3 h.

[3] = in vitro; details: PAMPA, pH 6.8
Experimental: Concentrations of curcumin and piperine during solubility, dissolution rate, and permeability studies were measured by high-performance liquid chromatography with the DAD detector (HPLC-DAD). In this study, a Shimadzu Nexera system (Shimadzu Corp., Kyoto, Japan) was used, equipped with an SCL-40 system controller, a DGU-403 degassing unit, a LC-40B XR solvent delivery module, a SIL-40C autosampler, a CTO-40C column oven, and a SPD-M40 photodiode array detector. For the stationary phase, a Dr. Maisch ReproSil-Pur Basic-C18 100 Å column with 5 µm particle size and 250 × 4.60 mm (Dr. Maisch, Ammerbuch-Entringen, Germany) was used. The mobile phase was acetonitrile:0.1% acetic acid (85:15 v/v). The mobile phase was vacuum-filtered through a 0.45 µm nylon filter (Phenomenex, Torrance, CA, USA). The experimental conditions were as follows: 0.5 mL/min flow rate, wavelengths of 420 nm for curcumin and 340 nm for piperine, and a column temperature of 30 °C. The injection volume differed depending on the assay. […] The method’s duration was 12 min. […]
In vitro gastrointestinal (GIT) and blood–brain barrier (BBB) permeability were studied using the PAMPA (Parallel Artificial Membrane Permeability Assay) models. […] The Papp factor was calculated according to the previously reported method. […] The results were expressed as a concentration in the acceptor solution.

[4] = PAMPA BBB permeability model; type: in vitro ADME; details: pH 7.4
Experimental: as §1
The sandwich consists of two 96-well microfilter plates.

Row | Structure (SMILES) | curcumin dissolved, % of the dose [1] | solubility at 3 h [2] | Papp at 3 h [3] | Papp at 3 h [4] | piperine dissolved, % of the dose [1]
1 | COc1cc(/C=C/C(=O)CC(=O)/C=C/c2ccc(O)c(OC)c2)ccc1O [curcumin] | 2.54 ± 0.15% | 0.1 µg/mL (≈ 0.271 µM) | 1.63 ×10⁻⁶ cm/s | 2.63 ×10⁻⁶ cm/s | 
2 | O=C(/C=C/C=C/c1ccc2c(c1)OCO2)N1CCCCC1 [piperine] |  | 6 ± 0.1 µg/mL (≈ 21 µM) | 8.18 ×10⁻⁶ cm/s | 57.7 ×10⁻⁶ cm/s | 22.63 ± 0.67%
